Series [1] concerns the target T1, factor Xa binding to factor Va2 (Homo sapiens, UniProt P00742+P12259).
T1 construct: Human prothrombin and factor Xa; tissue Hematologic Technologies Inc. (factor Xa only); factor Xa purchased
In words: Prothrombinase assembly monitored by initial rate of thrombin formation (DAPA fluorescence, stopped flow), FVa2. It is filed as biochemical. The note with it: in presence of 400 μM C6PS. As to the method: The initial rate of thrombin formation was monitored by DAPA fluorescence. Stopped flow fluorescence measurements were performed at 37° C. with final mixing chamber concentrations of 1 μM prothrombin, 5 μM DAPA, 1 nM factor Xa, 400 μM C6PS and various concentrations of factor Va2 (Panel A) or Va1 (Panel B) in 50 mM Tris-HCl (pH 7.5), 150 mM NaCl, 5 mM CaCl2. The initial rates were fit to a single binding site model as described herein to determine the Kd^eff of factor Xa binding to factor Va2 in presence of 400 μM C6PS (2.4±0.3 nM). […] The abrupt appearance of aggregates at 700 μM C6PS defines the critical micelle concentration under these experimental conditions.
Fluorescence Stopped-Flow Measurements. The rates of thrombin formation from either MzIIa or Pre2 (with equimolar fragment 1.2), or of thrombin plus MzIIa formation from human prothrombin, were estimated from the time-dependent fluorescence change of DAPA bound to the activation products. […] The calculation of rates from measurements of initial fluorescence intensity (F0) and intensity at the completion of the reaction (F∞) is well-established (Nesheim and Mann (1983) supra; Wu, et al. (2002) supra).
Initial rates of prothrombin activation by FXa as monitored by DAPA fluorescence are shown in FIG. 2 as a function of added FVa2 (Panel A) and FVa1 (Panel B) in the presence of 400 μM C6PS. […]

For series [2] the following is noted: pure C6PS; cited from earlier work.
The target of the next series is T2, factor Va (Bos taurus, UniProt Q28107).
T2 sequence (Q28107 29-741 limits assumed): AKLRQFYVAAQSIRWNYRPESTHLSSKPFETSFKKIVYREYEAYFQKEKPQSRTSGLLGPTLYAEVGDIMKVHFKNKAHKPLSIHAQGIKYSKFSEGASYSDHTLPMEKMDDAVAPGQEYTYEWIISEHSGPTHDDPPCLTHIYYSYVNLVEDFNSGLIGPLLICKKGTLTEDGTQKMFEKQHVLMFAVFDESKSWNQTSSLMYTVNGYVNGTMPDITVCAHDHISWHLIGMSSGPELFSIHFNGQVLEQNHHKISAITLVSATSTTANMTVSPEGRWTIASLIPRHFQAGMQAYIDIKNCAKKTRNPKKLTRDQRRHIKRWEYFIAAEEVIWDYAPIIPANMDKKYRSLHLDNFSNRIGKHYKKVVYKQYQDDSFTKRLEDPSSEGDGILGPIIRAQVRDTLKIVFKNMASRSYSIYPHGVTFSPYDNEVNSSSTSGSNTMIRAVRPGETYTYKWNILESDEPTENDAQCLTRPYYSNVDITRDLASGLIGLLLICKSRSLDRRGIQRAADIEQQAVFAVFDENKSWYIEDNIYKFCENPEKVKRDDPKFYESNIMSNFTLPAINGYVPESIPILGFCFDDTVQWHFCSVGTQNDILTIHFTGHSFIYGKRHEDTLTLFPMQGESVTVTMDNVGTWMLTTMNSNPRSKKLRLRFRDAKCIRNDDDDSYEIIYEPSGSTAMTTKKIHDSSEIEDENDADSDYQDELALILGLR
T2 sequence (Q28107 1565-2211 limits assumed): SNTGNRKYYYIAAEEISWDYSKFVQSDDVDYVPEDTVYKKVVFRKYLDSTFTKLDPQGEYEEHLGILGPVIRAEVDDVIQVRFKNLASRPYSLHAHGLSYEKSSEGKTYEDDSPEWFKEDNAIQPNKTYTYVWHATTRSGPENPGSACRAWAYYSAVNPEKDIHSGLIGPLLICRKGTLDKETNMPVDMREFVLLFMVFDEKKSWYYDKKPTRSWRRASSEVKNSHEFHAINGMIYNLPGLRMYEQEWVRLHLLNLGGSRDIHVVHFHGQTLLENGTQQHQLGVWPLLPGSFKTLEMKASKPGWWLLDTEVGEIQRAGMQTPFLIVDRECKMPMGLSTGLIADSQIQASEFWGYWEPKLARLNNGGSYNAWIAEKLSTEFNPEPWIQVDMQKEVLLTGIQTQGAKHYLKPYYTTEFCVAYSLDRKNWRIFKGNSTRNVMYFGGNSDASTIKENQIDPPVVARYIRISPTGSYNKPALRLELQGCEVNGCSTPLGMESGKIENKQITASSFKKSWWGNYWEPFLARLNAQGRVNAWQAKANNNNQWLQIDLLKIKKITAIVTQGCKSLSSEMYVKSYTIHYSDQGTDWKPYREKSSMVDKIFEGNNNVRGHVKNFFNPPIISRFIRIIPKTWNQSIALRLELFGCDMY
Conditions: Zhai et al. (2002); read-out: kd of binding to factor Va; cited from earlier work.

Here are results for one compound from patent US7727736B2, “Soluble phospholipids for use in clotting factor assays” (The University of North Carolina at Chapel Hill, priority 2003, dated 2010).

SMILES strings stand for the structures.

Usually Kd stands for a measure of binding affinity in units of concentration.

T1 sequence (P00742 41-179 limits assumed): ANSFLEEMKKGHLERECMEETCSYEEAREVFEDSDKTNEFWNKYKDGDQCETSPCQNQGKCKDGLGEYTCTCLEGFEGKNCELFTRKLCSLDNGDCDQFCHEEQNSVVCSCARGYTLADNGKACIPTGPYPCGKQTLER
T1 sequence (P00742 235-488 limits assumed): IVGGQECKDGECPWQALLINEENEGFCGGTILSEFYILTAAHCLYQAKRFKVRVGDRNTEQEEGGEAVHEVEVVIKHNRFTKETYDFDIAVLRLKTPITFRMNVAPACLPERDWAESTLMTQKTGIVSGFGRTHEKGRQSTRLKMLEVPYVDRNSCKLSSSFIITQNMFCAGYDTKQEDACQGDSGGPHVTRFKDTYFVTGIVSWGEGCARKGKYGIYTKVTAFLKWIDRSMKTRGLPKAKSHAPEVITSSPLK
T1 sequence (P12259 29-737 limits assumed): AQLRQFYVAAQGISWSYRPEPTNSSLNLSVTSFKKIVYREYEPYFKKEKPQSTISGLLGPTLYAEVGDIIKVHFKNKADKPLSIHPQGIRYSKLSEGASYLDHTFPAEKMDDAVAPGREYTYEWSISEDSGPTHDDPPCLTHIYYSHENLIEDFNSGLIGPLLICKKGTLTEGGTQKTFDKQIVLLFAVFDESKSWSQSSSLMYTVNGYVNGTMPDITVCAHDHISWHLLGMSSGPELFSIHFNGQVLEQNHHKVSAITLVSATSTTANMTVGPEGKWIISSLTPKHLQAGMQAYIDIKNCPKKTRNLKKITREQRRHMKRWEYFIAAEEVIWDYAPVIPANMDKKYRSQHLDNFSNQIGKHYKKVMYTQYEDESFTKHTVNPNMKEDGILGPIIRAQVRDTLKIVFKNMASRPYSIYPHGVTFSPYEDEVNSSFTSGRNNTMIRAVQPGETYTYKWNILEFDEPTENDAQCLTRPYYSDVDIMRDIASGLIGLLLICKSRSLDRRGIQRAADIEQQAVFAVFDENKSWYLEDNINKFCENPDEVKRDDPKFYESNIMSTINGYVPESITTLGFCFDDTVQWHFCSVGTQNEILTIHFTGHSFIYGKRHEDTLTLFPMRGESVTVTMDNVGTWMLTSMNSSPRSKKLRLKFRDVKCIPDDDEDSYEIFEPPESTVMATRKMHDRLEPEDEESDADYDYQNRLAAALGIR
T1 sequence (P12259 1574-2224 limits assumed): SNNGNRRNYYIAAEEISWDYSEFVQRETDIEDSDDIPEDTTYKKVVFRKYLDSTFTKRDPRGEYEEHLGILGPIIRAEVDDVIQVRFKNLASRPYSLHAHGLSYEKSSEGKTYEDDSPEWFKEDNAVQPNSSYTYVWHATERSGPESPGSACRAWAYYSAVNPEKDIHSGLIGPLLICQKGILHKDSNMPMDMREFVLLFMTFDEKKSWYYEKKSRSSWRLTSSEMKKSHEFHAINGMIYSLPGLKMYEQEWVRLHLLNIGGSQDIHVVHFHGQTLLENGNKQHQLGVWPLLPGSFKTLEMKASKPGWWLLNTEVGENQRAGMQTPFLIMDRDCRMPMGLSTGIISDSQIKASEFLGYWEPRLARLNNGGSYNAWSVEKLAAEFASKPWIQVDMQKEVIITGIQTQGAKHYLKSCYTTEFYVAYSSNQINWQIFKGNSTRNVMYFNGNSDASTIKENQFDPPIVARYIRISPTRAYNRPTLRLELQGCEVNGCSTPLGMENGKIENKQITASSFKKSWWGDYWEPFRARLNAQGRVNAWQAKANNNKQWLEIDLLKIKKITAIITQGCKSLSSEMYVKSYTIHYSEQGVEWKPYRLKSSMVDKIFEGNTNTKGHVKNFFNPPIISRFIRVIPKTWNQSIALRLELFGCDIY

Turning to `CCCCCC(=O)OC[C@H](COP(=O)(O)OC[C@H](N)C(=O)O)OC(=O)CCCCC` [C6PS, 1,2-dicaproyl-sn-glycero-3-phospho-L-serine], the “fold tighter FVa2 interaction with FXa than FVa1” value in series [1] is recorded as “at least 300 fold”. In addition, the “monomers in minimal micelle predicted for C6PS” value in series [2] is recorded as roughly 200 monomers. The Kd on factor Va is roughly 90 µM.
